# PubChem BioAssay AID2060513 (Molecular Pharmacology Branch, DTP, NCI, 2025)
# pIC50: −log10 of the molar value.
# System: 299254-011-R-J1-PDC complex spheroids viability
# Assay: Anticancer human tumor 299254-011-R-J1-PDC patient-derived melanoma cell line growth inhibition [GQUAD]
# Conditions: for pIC50: curve of first compound; for viability, T/C: stronger effect = lower value
# In short: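 Tumor cells were grown as complex spheroids with HUVEC endothelial cells and mesenchymal stem cells as stroma. G-quadruplex stabilizers were combined with targeted agents over half-log dilutions from near the clinical Cmax, or from 10 microM.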
# 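Note: spheroids exposed to the agents for seven days before readout.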
# 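Throughout, for viability, T/C: percent viability relative to DMSO vehicle control wells = 100%.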
compound,measurement,setting,value
Cc1[nH]c2ccccc2c1CCNCc1ccc(/C=C/C(=O)NO)cc1 + CN(C)c1ccc(Nc2c3ccc(NC(=O)CCN4CCCC4)cc3nc3cc(NC(=O)CCN4CCCC4)ccc23)cc1,pIC50,second compound 0.0316 µM,6.79
same,pIC50,second compound 0.1 µM,6.86
same,pIC50,second compound 0.316 µM,6.77
same,pIC50,second compound 1 µM,6.73
same,pIC50,second compound 3.16 µM,6.82
same,pIC50,second compound 10 µM,6.87
same,"viability, T/C","second compound 0.0316 µM, first compound 0.000999 µM",96.8%
same,"viability, T/C","second compound 0.0316 µM, first compound 0.00316 µM",81.8%
same,"viability, T/C","second compound 0.0316 µM, first compound 0.00999 µM",89.2%
same,"viability, T/C","second compound 0.0316 µM, first compound 0.0316 µM",82.9%
same,"viability, T/C","second compound 0.0316 µM, first compound 0.0999 µM",74.8%
same,"viability, T/C","second compound 0.0316 µM, first compound 0.316 µM",16.3%
same,"viability, T/C","second compound 0.1 µM, first compound 0.000999 µM",86%
same,"viability, T/C","second compound 0.1 µM, first compound 0.00316 µM",102%
same,"viability, T/C","second compound 0.1 µM, first compound 0.00999 µM",86.8%
same,"viability, T/C","second compound 0.1 µM, first compound 0.0316 µM",90.3%
same,"viability, T/C","second compound 0.1 µM, first compound 0.0999 µM",63.7%
same,"viability, T/C","second compound 0.1 µM, first compound 0.316 µM",15%
same,"viability, T/C","second compound 0.316 µM, first compound 0.000999 µM",95.3%
same,"viability, T/C","second compound 0.316 µM, first compound 0.00316 µM",88.5%
same,"viability, T/C","second compound 0.316 µM, first compound 0.00999 µM",87%
same,"viability, T/C","second compound 0.316 µM, first compound 0.0316 µM",97.3%
same,"viability, T/C","second compound 0.316 µM, first compound 0.0999 µM",77%
same,"viability, T/C","second compound 0.316 µM, first compound 0.316 µM",19.3%
same,"viability, T/C","second compound 1 µM, first compound 0.000999 µM",101%
same,"viability, T/C","second compound 1 µM, first compound 0.00316 µM",110%
same,"viability, T/C","second compound 1 µM, first compound 0.00999 µM",73.4%
same,"viability, T/C","second compound 1 µM, first compound 0.0316 µM",92.4%
same,"viability, T/C","second compound 1 µM, first compound 0.0999 µM",87.8%
same,"viability, T/C","second compound 1 µM, first compound 0.316 µM",18.7%
same,"viability, T/C","second compound 3.16 µM, first compound 0.000999 µM",111%
same,"viability, T/C","second compound 3.16 µM, first compound 0.00316 µM",110%
same,"viability, T/C","second compound 3.16 µM, first compound 0.00999 µM",86.6%
same,"viability, T/C","second compound 3.16 µM, first compound 0.0316 µM",107%
same,"viability, T/C","second compound 3.16 µM, first compound 0.0999 µM",68.9%
same,"viability, T/C","second compound 3.16 µM, first compound 0.316 µM",16.2%
same,"viability, T/C","second compound 10 µM, first compound 0.000999 µM",103%
same,"viability, T/C","second compound 10 µM, first compound 0.00316 µM",121%
same,"viability, T/C","second compound 10 µM, first compound 0.00999 µM",98.8%
same,"viability, T/C","second compound 10 µM, first compound 0.0316 µM",95.7%
same,"viability, T/C","second compound 10 µM, first compound 0.0999 µM",61.7%
same,"viability, T/C","second compound 10 µM, first compound 0.316 µM",14.7%
